Measured values reported in PubChem BioAssay (NCI).
“And” between values parts separate entries of the source, which are not always exact repeats. Identical values can stand only once.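 96-well plates; 48 h exposure; 5 concentrations. Endpoints by linear interpolation between flanking doses. Not reached: highest tested concentration assigned. GI50 marks 50% less growth. TGI marks complete inhibition of growth.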

Columns and labels:
Experiment in all cases: NCI anticancer screen, dose series, 48 h
[1] = tested on: 786-0 renal
[2] = tested on: SK-MEL-2 melanoma
[3] = tested on: PC-3 prostate
[4] = tested on: MDA-MB-231 breast
[5] = tested on: TK-10 renal
[6] = tested on: NCI-H460 lung
[7] = tested on: DU-145 prostate
[8] = tested on: SF-295 CNS

Structure (SMILES)	GI50 [1]	TGI [1]	GI50 [2]	TGI [2]	GI50 [3]	TGI [3]	GI50 [4]	TGI [4]	GI50 [5]	TGI [5]	GI50 [6]	TGI [6]	GI50 [7]	TGI [7]	GI50 [8]	TGI [8]
CCSCC1CC(O)(c2ccccc2)C(c2ccccc2)C(c2ccc(F)cc2)O1 (stereo not given)	2.19 µM	5.08 µM	1.98 µM	4 µM	1.95 µM	9.06 µM	2.58 µM	8.3 µM	2.6 µM	7.28 µM	1.83 µM	4.01 µM	2.75 µM	6.99 µM	–	–
CCC(c1ccccc1)c1noc(CCN(CC)CC)n1 (stereo not given)	34.4 µM	> 100 µM	24.7 µM	67.7 µM	49.6 µM	> 100 µM	26.4 µM	> 91.2 µM	42.8 µM	> 100 µM	> 52.3 µM	> 87.8 µM	22.7 µM	> 64.3 µM	> 56.9 µM	> 100 µM
Nc1nccc(-c2c(-c3ccc(F)cc3)nn3cc(C(F)(F)F)ccc23)n1	> 25 µM	> 25 µM	> 25 µM	> 25 µM	> 25 µM	> 25 µM	> 25 µM	> 25 µM	> 25 µM	> 25 µM	> 25 µM	> 25 µM	> 25 µM	> 25 µM	> 25 µM	> 25 µM
COc1ccc(-c2nc3ccc(Cc4ccc5nc(-c6ccc(OC)cc6)[nH]c5c4)cc3[nH]2)cc1	0.0358 µM	0.381 µM	0.0404 µM	1.75 µM	0.0428 µM	1.2 µM	0.0476 µM	0.586 µM	1.1 µM	2.32 µM	0.0335 µM	0.122 µM	0.0385 µM	0.154 µM	0.0176 µM	0.364 µM
COc1cc(C(=O)/C=C/c2cccc(Nc3ccnc4cc(Cl)ccc34)c2)cc(OC)c1OC	0.564 µM	1.95 µM	–	–	–	–	–	–	1.45 µM	2.97 µM	1.91 µM	4.49 µM	–	–	1.42 µM	3.03 µM
CN(C)c1ccc(-c2cc(-c3ccc(Nc4nc(Nc5ccc(Cl)cc5)nc(Nc5ccc(Cl)cc5)n4)cc3)nc(N)c2C#N)cc1	16.7 µM	> 100 µM	10.8 µM	86.7 µM	1.53 µM	7.44 µM	5.51 µM	60.3 µM	53.8 µM	> 100 µM	15.4 µM	> 100 µM	34.6 µM	> 100 µM	13.9 µM	> 100 µM
CC[C@H](C)[C@H](NC(=O)[C@H]1CCCCN1C)C(=O)N(C)[C@H](C[C@@H](OC(C)=O)c1nc(C(=O)NC23CC(C(=O)OC)(C2)C3)cs1)C(C)C	0.00064 µM and 0.00325 µM	> 32.5 µM	0.00102 µM and 0.00325 µM	0.0347 µM	0.00129 µM and 0.00325 µM	> 32.5 µM	0.00163 µM and 0.00363 µM	> 32.5 µM	0.0458 µM	–	0.0007 µM and 0.00325 µM	> 32.5 µM	0.000449 µM and 0.00325 µM	> 32.5 µM	0.00128 µM and 0.00325 µM	–
CCO/C=C1\SC(=S)N(c2ccc(OCC)cc2)C1=O	–	> 100 µM	–	> 100 µM	–	> 100 µM	–	> 100 µM	–	> 100 µM	–	> 100 µM	–	> 100 µM	–	> 100 µM
CCCCCC(=O)O[C@]1(C(C)=O)CCC2C3CCC4=CC(=O)CC[C@]4(C)C3CC[C@@]21C (stereo not given in full)	2.71 µM	8.73 µM	2.87 µM	7.73 µM	1.64 µM	8.52 µM	2.49 µM	7.88 µM	3.46 µM	> 23.7 µM	2.31 µM	8.59 µM	3.56 µM	13.4 µM	2.87 µM	12.5 µM
O=C(c1cccs1)c1c(C(F)(F)F)n([O-])c2cc(Cl)c(Cl)cc2[n+]1=O	0.756 µM	1.91 µM	2.7 µM	> 100 µM	1.37 µM	2.81 µM	0.647 µM	2.07 µM	1.55 µM	2.95 µM	1.39 µM	4.07 µM	0.872 µM	2.68 µM	0.51 µM	1.32 µM
CNCc1ccc(-c2cc(-c3nc(-c4ccc(S(=O)(=O)C(C)C)cc4)cnc3N)on2)cc1	0.362 µM	11.3 µM	2 µM	16.4 µM	1.97 µM	8.32 µM	3.8 µM	19.6 µM	10.2 µM	22.3 µM	0.322 µM	1.6 µM	0.798 µM	5.91 µM	4.5 µM	22.9 µM
COc1cc2nnc3c4cccnc4[nH]c3c2cc1OC	1.46 µM and 0.319 µM	7.1 µM and 1.63 µM	13.8 µM and 11.3 µM	50 µM and 37.9 µM	–	50 µM and > 100 µM	3.14 µM and 2.69 µM	50 µM and > 100 µM	10.3 µM and 2.38 µM	50 µM and 7.83 µM	2.84 µM and 2.46 µM	12.9 µM and 8.63 µM	4.32 µM and 2.1 µM	18.3 µM and 5.11 µM	9.72 µM and 2.43 µM	50 µM and 6.92 µM
Cc1ccc(S(=O)(=O)NCCCCC(N)C(=O)O)cc1 (stereo not given)	–	> 100 µM	–	–	–	> 100 µM	–	> 100 µM	–	–	–	> 100 µM	–	> 100 µM	–	> 100 µM
Cc1cc(Cl)nc(N(CCNc2ccnc3cc(Cl)ccc23)Cc2ccco2)n1	1.65 µM	3.1 µM	2.18 µM	4.8 µM	2.03 µM	5.49 µM	1.85 µM	3.76 µM	2.62 µM	8.39 µM	1.84 µM	3.94 µM	1.9 µM	3.8 µM	1.5 µM	3.01 µM
COc1ccc(-c2[nH]c3ccc(OC)cc3c2C=C(C#N)C#N)cc1	14.3 µM	> 100 µM	5.85 µM	> 100 µM	0.342 µM	> 100 µM	1.18 µM	> 100 µM	> 100 µM	> 100 µM	0.463 µM	> 100 µM	0.752 µM	> 100 µM	0.306 µM	> 100 µM
O=C(COc1ccc(/C=C2\Oc3ccccc3C2=O)cc1)Nc1nc2ccccc2s1	5.26 µM	53.3 µM	14.6 µM	> 68.6 µM	2.27 µM	> 70.6 µM	4.7 µM	60.3 µM	> 84.8 µM	> 100 µM	43.8 µM	> 100 µM	5.59 µM	> 100 µM	28.7 µM	> 75.3 µM
